Literature values in article PMC4358366, “Identification of ‘erasers’ for lysine crotonylated histone marks using a chemical proteomics approach” (eLife, 2014).
Entries after “also recorded” stand apart in the source; their conditions may differ. Where no end group is shown, it is not given here. The star is where a group is joined. Crotonyl(E) = C/C=C/C(=O)*

How the values were obtained:
Conditions in all cases: H3K9Cr peptide, residues 5–13; [32P]-NAD TLC; ref Feldman et al., 2013; cited from earlier work
Sirt3 = tested on: Sirt3
Excerpt: Siruins were initially recognized as NAD-dependent deacetylases ([Imai et al., 2000]; [Landry et al., 2000]; [Sauve et al., 2006]). […] In this study ...

Sirt2 = tested on: Sirt2
Excerpt: (§1) Lysine crotonylation (Kcr) is a newly discovered histone PTM that is specifically enriched at active gene promoters and potential enhancers in mammalian cell genomes ([Tan et al., 2011]). […] However, further mechanistic and functional studies of histone Kcr have been limited by a lack of knowledge of the enzymes that catalyze the addition or removal of Kcr in cells. In a systematic screening of the activities of the ... || Siruins were initially recognized as NAD-dependent deacetylases ([Imai et al., 2000]; [Landry et al., 2000]; [Sauve et al., 2006]). […] In this study ...

Sirt1 = tested on: Sirt1
Excerpt: as §1

Substance: histone H3K9Cr peptide: H3K9Cr peptide of Denu's study, residues 5–13 of histone H3 (QTARK(Crotonyl(E))STGG; UniProt P68431 6-14, looked up, fragment)
- decrotonylase activity of Sirt3 (literature) (Sirt3): totally inactive
- decrotonylase activity of Sirt2 (literature) (Sirt2): exhibited decrotonylase activity; also recorded: can catalyze the removal of a crotonyl group
- decrotonylase activity of Sirt1 (literature) (Sirt1): exhibited decrotonylase activity; also recorded: can catalyze the removal of a crotonyl group
